The values that follow are results of earlier work, collected in article PMC7661967, “Magnetic Resonance Molecular Imaging of Extradomain B Fibronectin Improves Imaging of Pancreatic Cancer Tumor Xenografts” (Frontiers in Oncology, 2020).

The test system of the data set is EDB-FN in PaCa. Conditions: PET; cited from earlier work. The text has this:
Molecular imaging of EDB-FN in cancer has been previously investigated with antibodies labeled with radioisotopes for PET imaging. Anti-EDN-FN antibody BC-1 was labeled with ^125I and tested in mice bearing U87 brain tumor and SKMel28 melanoma xenografts ([29]). […] Nanobodies with a smaller size were recently developed for molecular imaging of E ...

On to “ZD2-((68)Ga-NOTA) [ZD2 peptide labeled with ^68Ga]”, for which the “molecular imaging of EDB-FN in PaCa” value is “sensitive and specific molecular imaging of EDB-FN in PaCa”.
